Data from patent publication US11661426B2, “Imidazole-containing inhibitors of ALK2 kinase” (BioCryst Pharmaceuticals, Inc., priority 2017, dated 2023).

Molecular target: ALK2 (Homo sapiens (Human), UniProt Q04771)
Test: ALK2 inhibition, LanthaScreen Eu Kinase Binding Assay (ThermoFisher Scientific / Life Technologies)
Details: read-out: Measured Ki (IC50) Value for Compounds: IC50
Experimental: Biochemical assays to measure the inhibitory effects of the compounds were performed by ThermoFisher Scientific (Life Technologies). ALK2 inhibition was tested using LanthaScreen™ Eu Kinase Binding Assay screening protocol.

ALK2, sequence (Q04771 21-509): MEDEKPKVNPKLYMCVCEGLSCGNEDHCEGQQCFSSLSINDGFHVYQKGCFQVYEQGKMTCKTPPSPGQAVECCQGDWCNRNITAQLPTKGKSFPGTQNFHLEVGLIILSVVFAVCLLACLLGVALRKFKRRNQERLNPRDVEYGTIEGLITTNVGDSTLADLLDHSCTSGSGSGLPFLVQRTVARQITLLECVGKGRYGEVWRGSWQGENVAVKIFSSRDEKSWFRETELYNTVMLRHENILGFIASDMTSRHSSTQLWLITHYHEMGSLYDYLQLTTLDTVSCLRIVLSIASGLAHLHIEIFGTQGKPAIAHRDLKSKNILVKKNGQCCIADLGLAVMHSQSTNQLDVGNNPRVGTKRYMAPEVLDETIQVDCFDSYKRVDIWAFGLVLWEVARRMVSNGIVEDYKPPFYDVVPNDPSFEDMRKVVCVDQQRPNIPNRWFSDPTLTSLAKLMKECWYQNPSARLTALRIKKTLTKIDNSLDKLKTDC

SMILES | IC50 [µM]
COc1cc(-n2cnc(Nc3nc(N4CCC[C@H]4CO)c4cccn4n3)c2)cc(OC)c1OC [Compound 96b, (S)-(1-(2-((1-(3,4,5-trimethoxyphenyl)-1H-imidazol-4-yl)amino)pyrrolo[2,1-f][1,2,4]triazin-4-yl)pyrrolidin-2-yl)methanol] | < 0.1
COc1cc(-n2cnc(Nc3nc(N4CCC[C@H]4CO)nc4sc(CN5CCOCC5)cc34)c2)cc(OC)c1OC [Compound 97d, (S)-(1-(6-(morpholinomethyl)-4-((1-(3,4,5-trimethoxyphenyl)-1H-imidazol-4-yl)amino)thieno[2,3-d]pyrimidin-2-yl)pyrrolidin-2-yl)methanol] | < 0.1
COc1cc(-n2cnc(Nc3nc(N4CCC[C@H]4CO)nn4c(C5=CCN(C(=O)OC(C)(C)C)CC5)ccc34)c2)cc(OC)c1OC [Compound 98a, (S)-tert-butyl 4-(2-(2-(hydroxymethyl)pyrrolidin-1-yl)-4-(1-(3,4,5-trimethoxyphenyl)-1H-imidazol-4-ylamino)pyrrolo[1,2-f][1,2,4]triazin-7-yl)-5,6-dihydropyridine-1(2H)-carboxylate] | < 0.1
COc1cc(-n2cnc(Nc3nc(N4CCC[C@H]4CO)nn4c(C(C)O)ccc34)c2)cc(OC)c1OC (stereo partly drawn) [Compound 99b, 1-(2-((S)-2-(hydroxymethyl)pyrrolidin-1-yl)-4-((1-(3,4,5-trimethoxyphenyl)-1H-imidazol-4-yl)amino)pyrrolo[2,1-f][1,2,4]triazin-7-yl)ethanol] | < 0.1
COc1cc(-n2cnc(Nc3nc(N4CCC[C@H]4CO)nn4c(CO)ccc34)c2)cc(OC)c1OC [Compound 101c, (S)-(1-(7-(hydroxymethyl)-4-((1-(3,4,5-trimethoxyphenyl)-1H-imidazol-4-yl)amino)pyrrolo[2,1-f][1,2,4]triazin-2-yl)pyrrolidin-2-yl)methanol] | < 0.1
COc1cc(-n2cnc(Nc3nc(N4CCC[C@H]4CO)nc4sc(CN5CCC(O)CC5)cc34)c2)cc(OC)c1OC [Compound 102b, (S)-1-((2-(2-(hydroxymethyl)pyrrolidin-1-yl)-4-((1-(3,4,5-trimethoxyphenyl)-1H-imidazol-4-yl)amino)thieno[2,3-d]pyrimidin-6-yl)methyl)piperidin-4-ol] | < 0.1
COc1cc(-n2cnc(Nc3nc(N4CCC[C@H]4CO)nc4ccoc34)c2)cc(OC)c1OC [Compound 103b, (S)-(1-(4-((1-(3,4,5-trimethoxyphenyl)-1H-imidazol-4-yl)amino)furo[3,2-d]pyrimidin-2-yl)pyrrolidin-2-yl)methanol] | < 0.1
COc1cc(-n2cnc(Nc3nc(N4CCC[C@H]4CO)nc4sc(CN5CCN(C)CC5)cc34)c2)cc(OC)c1OC [Compound 104b, (S)-(1-(6-((4-methylpiperazin-1-yl)methyl)-4-((1-(3,4,5-trimethoxyphenyl)-1H-imidazol-4-yl)amino)thieno[2,3-d]pyrimidin-2-yl)pyrrolidin-2-yl)methanol] | < 0.1
COc1cc(-n2cnc(Nc3nc(N4CCC[C@H]4CO)nn4c(CN5CCCCC5)ccc34)c2)cc(OC)c1OC [Compound 105b, (S)-(1-(7-(piperidin-1-ylmethyl)-4-((1-(3,4,5-trimethoxyphenyl)-1H-imidazol-4-yl)amino)pyrrolo[2,1-f][1,2,4]triazin-2-yl)pyrrolidin-2-yl)methanol] | < 0.1
COc1cc(-n2cnc(Nc3nc(N4CCC[C@H]4CO)nn4c(CN5CCN(C6CC6)CC5)ccc34)c2)cc(OC)c1OC [Compound 106b, (S)-(1-(7-((4-cyclopropylpiperazin-1-yl)methyl)-4-((1-(3,4,5-trimethoxyphenyl)-1H-imidazol-4-yl)amino)pyrrolo[2,1-f][1,2,4]triazin-2-yl)pyrrolidin-2-yl)methanol] | < 0.1
COc1cc(-n2cnc(Nc3nc(N4CCC[C@H]4CO)nn4c(C5=CCNCC5)ccc34)c2)cc(OC)c1OC [Compound 107a, (S)-(1-(7-(1,2,3,6-tetrahydropyridin-4-yl)-4-(1-(3,4,5-trimethoxyphenyl)-1H-imidazol-4-ylamino)pyrrolo[1,2-f][1,2,4]triazin-2-yl)pyrrolidin-2-yl)methanol] | < 0.1
